From patent publication EP4793274A1, “SALT AND CRYSTAL FORM OF KIF18A INHIBITOR COMPOUND, PREPARATION METHOD THEREFOR AND USE THEREOF” (Hubei Bio-Pharmaceutical Industrial Technological Institute …, priority 2023, dated 2025) come the findings set out here.

The pKa is the pH at which an ionisable group is half protonated. Broadly, the IC50 is the concentration that gives 50% inhibition.

One data set is described as follows: pKa of the compound. Type of data set: physicochemical. The settings on record: basic group.
The subject of the next data set is NIH:OVCAR-3 cells. Kind of data set: Inhibition of OVCAR3 tumor cell proliferation (CellTiter-Glo). It is filed as cell-based. The settings on record: Homo sapiens, OVCAR-3, 72 h, 3 days drug treatment. Here is the method: NIH:OVCAR-3 cells (ATCC, Cat No. HTB-161, purchased from Co-Bier) were seeded into a T75 culture flask and cultured in an RPMI 1640 medium containing 20% FBS for 3 days in preparation for subsequent culturing and seeding into a 96-well plate for the cell proliferation assay. The OVCAR3 cells were seeded at a density of 3000 cells/100 µL/well into the 96-well cell plate, and then the plate was incubated in an incubator (37 °C, 5% CO2) for 18 h. On the second day, drug treatment was started. Serially diluted test compound solutions (each drug starting at a concentration of 10 µM, diluted in DMSO, with a dilution ratio of 1:3, and nine gradient points for each drug) or DMSO (negative control) was added to the medium in the plate at 100 µL/well, and a blank group was set up with only medium, but no seeded cell strains. After the drug addition, the plate was incubated in the incubator for another 3 days (37 °C, 5% CO2). On the fourth day, plate detection was performed. To each well, 100 µL of CellTiter-Glo reagent (Promega G9243) was added. The plate was shaken for 5 min and then left to stand at room temperature for 5 min. The chemical luminescence signal value of each well was determined using a microplate reader (PerkinElmer EnVision®2104). […] Then, the IC50 value of the test compound was calculated using the GraphPad Prism 8 software.

In data set [1] the target is T1, recombinant protein KIF18A (kinesin domain: aa 1-467) (Homo sapiens, UniProt Q8NI77).
T1 construct: KIF18A (kinesin domain: aa 1-467); made in house; host or cells: Bac-to-Bac baculovirus expression system (Invitrogen)
T1 sequence (Q8NI77 1-467): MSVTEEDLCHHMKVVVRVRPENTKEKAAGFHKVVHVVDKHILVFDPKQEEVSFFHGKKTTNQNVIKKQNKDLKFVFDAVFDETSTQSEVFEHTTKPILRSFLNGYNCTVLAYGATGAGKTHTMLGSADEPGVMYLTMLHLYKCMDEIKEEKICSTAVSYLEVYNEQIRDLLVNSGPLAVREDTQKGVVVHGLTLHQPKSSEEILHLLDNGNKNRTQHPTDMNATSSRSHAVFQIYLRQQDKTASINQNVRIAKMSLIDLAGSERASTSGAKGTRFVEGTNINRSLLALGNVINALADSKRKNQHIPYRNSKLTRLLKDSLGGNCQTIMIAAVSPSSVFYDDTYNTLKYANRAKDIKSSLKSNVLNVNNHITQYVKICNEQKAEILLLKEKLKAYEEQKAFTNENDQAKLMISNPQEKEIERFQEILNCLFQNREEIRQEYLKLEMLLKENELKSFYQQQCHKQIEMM
Kind of data set: Inhibition of KIF18A enzymatic activity (ADP-Glo kinase assay kit). Type of data set: biochemical. The settings on record: KIF18A 80 nM, ATP 80 µM, 3 h at room temperature, luminescence. The source says:
The recombinant protein KIF18A (kinesin domain: aa 1-467) used in this assay was expressed by the Bac-to-Bac baculovirus expression system from Invitrogen, and the resulting protein was purified for use in this assay (Seki, M. et al. 2003 Nucleic Acids Res.). Quantitative detection of KIF18A enzymatic activity was completed using an ADP-Glo™ kinase assay kit (Promega Inc). Related procedures strictly followed the product instructions, which are briefly described as follows: The reaction system consisted of a test compound, the recombinant protein KIF18A (aa 1-467), ATP (Promega Inc), and an assay buffer. The test compound was prepared into a 0.5 mM stock solution using DMSO (Sigma Inc) and then serially diluted in DMSO. The assay buffer consisted of an aqueous solution of 15 mM Tris, 10 mM MgCl2 (Sigma Inc), 0.01% Pluronic F-68 (Life Technologies Inc), 1 µM paclitaxel (Cytoskeleton Inc), 30 µg/mL porcine tubulin (Cytoskeleton Inc), and 2% DMSO. […] After all reactions were completed, the luminescence values of the wells were read on a microplate reader (Molecular Device_SpectraMax Id5), and the inhibition ratios were calculated. […] Then, based on the inhibition rates at different compound concentrations, the IC50 value of the test compound was calculated using the GraphPad Prism 8 software.
(In general: ADP-Glo turns the ADP formed in a reaction into a luminescent signal.)

The compound `Cc1cc(-c2cnn(-c3ccc(NS(=O)(=O)CCO)cc3N3CCC4(CC3)CC4)c2)nc(N2CCC(F)(F)CC2)n1` [compound of formula I, N-(4-(4-(2-(4,4-difluoropiperidin-1-yl)-6-methylpyrimidin-4-yl)-1H-pyrazol-1-yl)-3-(6-azaspiro[2.5]octan-6-yl)phenyl)-2-hydroxyethane-1-sulfonamide] displayed a pKa in “pKa of the compound” of 4.5. Further, the values for the IC50 (with NIH:OVCAR-3 cells; in data set [1]) were 96 nM and 11 nM, respectively.
